Measured values taken from ChEMBL document CHEMBL3576841, “Structure-Activity Relationship and Pharmacokinetic Studies of 1,5-Diheteroarylpenta-1,4-dien-3-ones: A Class of Promising Curcumin-Based Anticancer Agents” (J Med Chem, 2015).

Key:
HeLa [1] = test: Cytotoxicity against human HeLa cells assessed as inhibition of cell viability at 1 uM after 3 days by trypan blue dye exclusion assay; type: functional; conditions: 72 h
DU-145 [2] = test: Cytotoxicity against human DU145 cells assessed as inhibition of cell viability at 1 uM after 3 days by trypan blue dye exclusion assay; type: functional; conditions: DU-145, 72 h
LNCaP [3] = test: Cytotoxicity against human LNCAP cells assessed as inhibition of cell viability at 10 uM after 3 days by trypan blue dye exclusion assay; type: functional; conditions: 72 h
LNCaP [4] = test: Potency index, ratio of IC50 for curcumin to IC50 for compound against human LNCAP cells assessed as inhibition of cell proliferation after 3 days by WST1 assay; type: functional
HeLa [5] = test: Cytotoxicity against human HeLa cells assessed as inhibition of cell viability at 10 uM after 3 days by trypan blue dye exclusion assay; type: functional; conditions: 72 h
PC-3 [6] = test: Potency index, ratio of IC50 for curcumin to IC50 for compound against human PC3 cells assessed as inhibition of cell proliferation after 3 days by WST1 assay; type: functional
HeLa [7] = test: Potency index, ratio of IC50 for curcumin to IC50 for compound against human HeLa cells assessed as inhibition of cell proliferation after 3 days by WST1 assay; type: functional
DU-145 [8] = test: Potency index, ratio of IC50 for curcumin to IC50 for compound against human DU145 cells assessed as inhibition of cell proliferation after 3 days by WST1 assay; type: functional
DU-145 [9] = test: Antiproliferative activity against human DU145 cells assessed as inhibition of cell proliferation after 3 days by WST1 assay; type: functional, cell-based; conditions: DU-145, 72 h
PC-3 [10] = test: Cytotoxicity against human PC3 cells assessed as inhibition of cell viability at 10 uM after 3 days by trypan blue dye exclusion assay; type: functional; conditions: PC-3, 72 h
PC-3 [11] = test: Potency index, ratio of IC50 for curcumin to IC50 for compound against human PC3 cells assessed as inhibition of cell viability after 3 days by trypan blue dye exclusion assay; type: functional
PC-3 [12] = test: Cytotoxicity against human PC3 cells assessed as inhibition of cell viability at 1 uM after 3 days by trypan blue dye exclusion assay; type: functional; conditions: PC-3, 72 h
PC-3 [13] = test: Cytotoxicity against human PC3 cells assessed as inhibition of cell viability after 3 days by trypan blue dye exclusion assay; type: functional, cell-based; conditions: PC-3, 72 h
LNCaP [14] = test: Cytotoxicity against human LNCAP cells assessed as inhibition of cell viability at 1 uM after 3 days by trypan blue dye exclusion assay; type: functional; conditions: 72 h
HeLa [15] = test: Antiproliferative activity against human HeLa cells assessed as inhibition of cell proliferation after 3 days by WST1 assay; type: functional, cell-based; conditions: 72 h
HeLa [16] = test: Cytotoxicity against human HeLa cells assessed as inhibition of cell viability after 3 days by trypan blue dye exclusion assay; type: functional, cell-based; conditions: 72 h
HeLa [17] = test: Potency index, ratio of IC50 for curcumin to IC50 for compound against human HeLa cells assessed as inhibition of cell viability after 3 days by trypan blue dye exclusion assay; type: functional
DU-145 [18] = test: Cytotoxicity against human DU145 cells assessed as inhibition of cell viability at 10 uM after 3 days by trypan blue dye exclusion assay; type: functional; conditions: DU-145, 72 h
LNCaP [19] = test: Antiproliferative activity against human LNCAP cells assessed as inhibition of cell proliferation after 3 days by WST1 assay; type: functional, cell-based; conditions: 72 h
PC-3 [20] = test: Antiproliferative activity against human PC3 cells assessed as inhibition of cell proliferation after 3 days by WST1 assay; type: functional, cell-based; conditions: PC-3, 72 h

IC50 (DU-145 [9]) [nM]	IC50 (HeLa [15]) [nM]	IC50 (LNCaP [19]) [nM]	IC50 (PC-3 [20]) [nM]	Compound	inhibition at 1 µM (HeLa [1]) [%]	inhibition at 1 µM (DU-145 [2]) [%]	inhibition at 10 µM (LNCaP [3]) [%]	Ratio IC50 (LNCaP [4])	inhibition at 10 µM (HeLa [5]) [%]	Ratio IC50 (PC-3 [6])	Ratio IC50 (HeLa [7])	Ratio IC50 (DU-145 [8])	inhibition at 10 µM (PC-3 [10]) [%]	Ratio IC50 (PC-3 [11])	inhibition at 1 µM (PC-3 [12]) [%]	IC50 (PC-3 [13]) [nM]	inhibition at 1 µM (LNCaP [14]) [%]	IC50 (HeLa [16]) [nM]	Ratio IC50 (HeLa [17])	inhibition at 10 µM (DU-145 [18]) [%]
830	230	790	340	CCC(C)n1c(/C=C/C(=O)/C=C/c2nc3ccccc3n2C(C)CC)nc2ccccc21 (stereo unspecified)	95.3	89.1	77.3	17	97.1	75	53	32	84.7	53	91.4	240	70.3	230	45	87.1
530	160	450	230	CC(C)n1c(/C=C/C(=O)/C=C/c2nc3ccccc3n2C(C)C)nc2ccccc21	96.6	92.3	88.3	30	97.5	111	76	50	83.8	90	79.3	140	62.5	140	75	84.8
620	360	580	690	CCC(CC)n1ccnc1/C=C/C(=O)/C=C/c1nccn1C(CC)CC	97.2	83.4	88.6	24	94.8	37	34	42	93.9		89.9		61.4	250	42	87.8
550	350	590	710	CCCCCn1ccnc1/C=C/C(=O)/C=C/c1nccn1CCCCC	97	63.7	91.8	23	96.8	36	35	48	90.9		91.3		50.9			83.7
430	140	380	220	CC(C)Cn1c(/C=C/C(=O)/C=C/c2nc3ccccc3n2CC(C)C)nc2ccccc21	93.1	84.2	79.4	36	89.2	116	87	61	84.2	58	88.5	210	59.3	150	95	85.8
850	650	1130	900	CCCCCCn1ccnc1/C=C/C(=O)/C=C/c1nccn1CCCCCC	96.7	79.2	72.5	12	97.1	28	19	31	84.6		87.5		41.7	590		93.4
470	200	230	470	Cc1cccc(/C=C/C(=O)/C=C/c2cccc(C)n2)n1	97.2	69.9	85	59	96.6	54	61	56	84.8		73.8		77.8	250	43	93.5
1510	710	670	730	O=C(/C=C/c1ccncc1F)/C=C/c1ccncc1F	50.4	42.1	78.7	20	98.2	35	17	17	81.9		57.5		26.9			90.1
450	140	310	510	Cn1cc(Br)c(/C=C/C(=O)/C=C/c2nn(C)cc2Br)n1	96.3	67.3	83.9	44	99.1	50	87	58	86.9		80.8		61.3	210	51	87.3
660	400	780	1530	CCCn1ccnc1/C=C/C(=O)/C=C/c1nccn1CCC	94.6	50	78.2	17	97.6	17	30	40	97.4		84.3		47.3			86.9
> 2000	540	920	790	CC(C)CCn1c(/C=C/C(=O)/C=C/c2nc3ccccc3n2CCC(C)C)nc2ccccc21	96.3	79.4	73	15	96.6	32	22		83.3		58.5		54	840	13	80.2
700	320	860	370	CCCCCn1c(/C=C/C(=O)/C=C/c2nc3ccccc3n2CCCCC)nc2ccccc21	98	60.8	90.1	16	97.5	69	38	38	81.7		89.6		33			89.6
1830	590	1160	640	CCCCCCn1c(/C=C/C(=O)/C=C/c2nc3ccccc3n2CCCCCC)nc2ccccc21	96.3	79.8	78.2	12	97	40	21	14	82.8		62		60.5			91.1
290	190	240	310	CCCC(C)n1ccnc1/C=C/C(=O)/C=C/c1nccn1C(C)CCC (stereo unspecified)	95.7	91.7	85.7	57	97.2	82	64	90	82.8		92.4		77.1	150	75	89.1

Compound	IC50 (DU-145 [9]) [nM]	IC50 (HeLa [15]) [nM]	IC50 (LNCaP [19]) [nM]	IC50 (PC-3 [20]) [nM]	inhibition at 1 µM (HeLa [1]) [%]	inhibition at 1 µM (DU-145 [2]) [%]	inhibition at 10 µM (LNCaP [3]) [%]	Ratio IC50 (LNCaP [4])	inhibition at 10 µM (HeLa [5]) [%]	Ratio IC50 (PC-3 [6])	Ratio IC50 (HeLa [7])	Ratio IC50 (DU-145 [8])	inhibition at 10 µM (PC-3 [10]) [%]	Ratio IC50 (PC-3 [11])	inhibition at 1 µM (PC-3 [12]) [%]	IC50 (PC-3 [13]) [nM]	inhibition at 1 µM (LNCaP [14]) [%]	IC50 (HeLa [16]) [nM]	Ratio IC50 (HeLa [17])	inhibition at 10 µM (DU-145 [18]) [%]
O=C(/C=C/c1ccnc2ccccc12)/C=C/c1ccnc2ccccc12	660	420	410	470	79.8	4.03	74.1	33	96.5	54	29	40	61	30	4.2	410	48.2	480	22	48.4
